Reference: ChEMBL document CHEMBL1140165, “Rotationally constrained 2,4-diamino-5,6-disubstituted pyrimidines: a new class of histamine H4 receptor antagonists with improved druglikeness and in vivo efficacy in pain and inflammation models” (J Med Chem, 2008)
Active and inactive are the calls of the source. The rule behind the calls is not given here.

Experiments:
[1] = Selectivity ratio of Ki for human histamine H4 receptor to Ki for dopamine D2 receptor
Histamine H4 receptor [2] = target: T1, Histamine H4 receptor (Homo sapiens, UniProt Q9H3N8); assay: Displacement of [3H]histamine from human histamine H4 receptor expressed in HEK293 cells; type: cell-based
Cytochrome P450 3A4 = Cytochrome P450 3A4 (Homo sapiens, UniProt P08684); assay: Inhibition of CYP3A4 upto 10 uM; type: ADME
Liver microsomes [3] = assay: Metabolic stability in rat liver microsomes; type: ADME, Microsome
[4] = Protein binding in human; type: ADME, organism-based; settings: in vivo, read-out: PB (converted)
[5] = Protein binding in rat; type: ADME, organism-based; settings: in vivo, read-out: PB (converted)
Homo sapiens = organism: Homo sapiens; assay: Selectivity ratio of Ki for human histamine H4 receptor to Ki for human histamine H3 receptor
Histamine H4 receptor [6] = target: T1, Histamine H4 receptor; settings: HEK293
[7] = Selectivity ratio of Ki for human histamine H4 receptor to Ki for 5HT2A receptor
[8] = Selectivity ratio of Ki for human histamine H4 receptor to Ki for histamine H1 receptor
BMMC = assay: Blockade of histamine-induced morphological changes in BALB/c mouse BMMC by flow cytometry; type: functional, cell-based
[9] = Selectivity ratio of Ki for human histamine H4 receptor to Ki for 5HT1D receptor
Mus musculus [10] = assay: Antiinflammatory activity against ip dosed BALB/c mouse assessed as inhibition of zymosan-induced peritonitis after 2 hrs pretreated 30 mins before zymosan challenge; type: functional
[11] = Selectivity ratio of Ki for human histamine H4 receptor to Ki for histamine H2 receptor
[12] = Selectivity ratio of Ki for human histamine H4 receptor to Ki for 5HT1A receptor
[13] = Terminal volume of distribution in rat at 10 mg/kg, iv; type: ADME, organism-based; design: dose 10 mg/kg, route intravenous; settings: in vivo, read-out: Vbeta
[14] = Metabolic stability in mouse liver microsomes; type: ADME, Microsome
Cytochrome P450 2C9 = Cytochrome P450 2C9 (Homo sapiens, UniProt P11712); assay: Inhibition of CYP2C9 upto 10 uM; type: ADME
Liver microsomes [15] = assay: Metabolic stability in human liver microsomes; type: ADME, Microsome
Histamine H4 receptor [16] = target: T2, Histamine H4 receptor (Mus musculus, UniProt Q91ZY2); assay: Antagonist activity at mouse histamine H4 receptor expressed in HEK293 cells assessed as inhibition of histamine-induced intracellular calcium elevation by FLIPR assay; type: functional, cell-based
T2 sequence (Q91ZY2 whole entry): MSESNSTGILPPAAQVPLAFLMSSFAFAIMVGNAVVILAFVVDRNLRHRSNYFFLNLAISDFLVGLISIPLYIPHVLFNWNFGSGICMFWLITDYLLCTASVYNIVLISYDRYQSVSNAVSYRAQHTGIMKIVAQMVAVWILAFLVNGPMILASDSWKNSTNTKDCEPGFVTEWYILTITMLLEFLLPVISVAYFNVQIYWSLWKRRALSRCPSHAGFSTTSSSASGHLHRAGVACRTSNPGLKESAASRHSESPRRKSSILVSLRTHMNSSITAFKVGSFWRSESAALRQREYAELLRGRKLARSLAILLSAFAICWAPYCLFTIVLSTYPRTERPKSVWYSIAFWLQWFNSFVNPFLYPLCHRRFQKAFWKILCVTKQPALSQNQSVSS

[17] = Half life in rat at 10 mg/kg, iv; type: ADME, organism-based; design: dose 10 mg/kg, route intravenous; settings: in vivo
[18] = Selectivity ratio of Ki for human histamine H4 receptor to Ki for adrenergic alpha1 receptor
[19] = Fractional bioavailability in rat at 10 mg/kg, iv and 10 mg/kg, po; type: ADME, organism-based; settings: in vivo
Histamine H4 receptor [20] = target: T3, Histamine H4 receptor (Rattus norvegicus, UniProt Q91ZY1); assay: (§1) Antagonist activity at rat histamine H4 receptor expressed in HEK293 cells assessed as inhibition of histamine-induced intracellular calcium elevation by FLIPR assay; type: functional, cell-based
Histamine H4 receptor [21] = target: T3, Histamine H4 receptor; assay: Displacement of [3H]histamine from rat histamine H4 receptor expressed in HEK293 cells; type: cell-based
[22] = Blood clearance in rat at 10 mg/kg, iv; type: ADME, organism-based; design: dose 10 mg/kg, route intravenous; settings: whole blood
Mus musculus [23] = assay: Inhibition of clobenpropit-induced itching in ip dosed CD1/ICR mouse assessed as blockade of scratching in hind paw for 25 mins pretreated 30 mins before clobenpropit challenge; type: functional
Cytochrome P450 2D6 = Cytochrome P450 2D6 (Homo sapiens, UniProt P10635); assay: Inhibition of CYP2D6 upto 10 uM; type: ADME
[24] = target: Histamine H4 receptor (Rattus norvegicus) (UniProt Q91ZY1); assay: Antagonist activity at rat histamine H4 receptor expressed in HEK293 cells assessed as inhibition of histamine-induced intracellular calcium elevation by FLIPR assay relative to histamine; type: functional, cell-based
[25] = target: Histamine H4 receptor (Rattus norvegicus) (UniProt Q91ZY1); assay: as §1; type: functional, cell-based
[26] = target: Delta-type opioid receptor (Homo sapiens) (UniProt P41143); assay: Binding affinity to delta opioid receptor
[27] = target: Cannabinoid receptor 1 (Homo sapiens) (UniProt P21554); assay: Binding affinity to CB1 receptor
[28] = target: Kappa-type opioid receptor (Homo sapiens) (UniProt P41145); assay: Binding affinity to kappa opioid receptor
[29] = target: T4, Prostaglandin G/H synthase 2 (Homo sapiens) (UniProt P35354); assay: Binding affinity at COX2
T4 sequence (whole entry): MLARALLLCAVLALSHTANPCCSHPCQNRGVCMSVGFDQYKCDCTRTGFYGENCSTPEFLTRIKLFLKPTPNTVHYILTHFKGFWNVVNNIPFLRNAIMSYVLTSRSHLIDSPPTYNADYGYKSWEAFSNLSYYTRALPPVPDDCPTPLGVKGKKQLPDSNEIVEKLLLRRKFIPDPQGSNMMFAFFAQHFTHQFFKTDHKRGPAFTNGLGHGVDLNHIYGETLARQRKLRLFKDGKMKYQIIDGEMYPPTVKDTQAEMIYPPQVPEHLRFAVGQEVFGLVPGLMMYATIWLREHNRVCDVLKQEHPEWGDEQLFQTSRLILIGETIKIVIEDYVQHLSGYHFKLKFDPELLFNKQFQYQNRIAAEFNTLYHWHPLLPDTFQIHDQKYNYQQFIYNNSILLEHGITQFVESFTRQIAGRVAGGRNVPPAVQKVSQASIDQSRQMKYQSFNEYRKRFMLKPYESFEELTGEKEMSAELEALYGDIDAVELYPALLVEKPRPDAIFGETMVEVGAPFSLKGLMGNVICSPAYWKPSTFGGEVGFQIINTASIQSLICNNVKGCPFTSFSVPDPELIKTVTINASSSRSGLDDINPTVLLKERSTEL

[30] = target: Mu-type opioid receptor (Homo sapiens) (UniProt P35372); assay: Binding affinity to mu opioid receptor
[31] = target: Cannabinoid receptor 2 (Homo sapiens) (UniProt P34972); assay: Binding affinity to CB2 receptor
[32] = target: Prostaglandin G/H synthase 1 (Homo sapiens) (UniProt P23219); assay: Binding affinity at COX1
Prostaglandin G/H synthase 1 (Homo sapiens), sequence (P23219 whole entry): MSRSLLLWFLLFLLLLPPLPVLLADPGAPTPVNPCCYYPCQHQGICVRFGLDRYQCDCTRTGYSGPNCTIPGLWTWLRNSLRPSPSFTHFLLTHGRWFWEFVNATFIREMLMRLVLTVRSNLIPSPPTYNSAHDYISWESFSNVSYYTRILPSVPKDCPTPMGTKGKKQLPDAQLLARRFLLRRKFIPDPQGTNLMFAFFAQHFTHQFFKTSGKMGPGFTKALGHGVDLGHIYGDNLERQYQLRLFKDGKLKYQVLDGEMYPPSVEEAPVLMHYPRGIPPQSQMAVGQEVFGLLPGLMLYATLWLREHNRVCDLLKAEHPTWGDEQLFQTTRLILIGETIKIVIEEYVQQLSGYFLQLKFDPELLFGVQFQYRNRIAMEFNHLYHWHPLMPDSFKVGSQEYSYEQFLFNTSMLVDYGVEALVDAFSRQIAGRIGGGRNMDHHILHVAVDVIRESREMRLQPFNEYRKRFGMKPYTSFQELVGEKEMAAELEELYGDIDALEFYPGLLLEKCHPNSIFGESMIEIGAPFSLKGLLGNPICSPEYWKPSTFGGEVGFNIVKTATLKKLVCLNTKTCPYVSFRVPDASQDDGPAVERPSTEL

T1 sequence (Q9H3N8 whole entry): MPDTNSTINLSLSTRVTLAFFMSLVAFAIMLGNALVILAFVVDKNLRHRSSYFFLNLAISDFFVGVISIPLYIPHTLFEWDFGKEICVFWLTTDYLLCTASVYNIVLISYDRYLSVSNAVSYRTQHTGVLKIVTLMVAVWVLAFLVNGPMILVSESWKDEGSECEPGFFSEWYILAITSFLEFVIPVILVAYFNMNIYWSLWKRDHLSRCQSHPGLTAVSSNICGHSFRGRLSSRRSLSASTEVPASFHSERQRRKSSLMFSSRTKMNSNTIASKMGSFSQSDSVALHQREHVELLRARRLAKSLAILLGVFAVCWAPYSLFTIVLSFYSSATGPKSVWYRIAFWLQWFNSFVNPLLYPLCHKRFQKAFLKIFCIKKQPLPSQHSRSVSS
Cytochrome P450 2D6, sequence (P10635 whole entry): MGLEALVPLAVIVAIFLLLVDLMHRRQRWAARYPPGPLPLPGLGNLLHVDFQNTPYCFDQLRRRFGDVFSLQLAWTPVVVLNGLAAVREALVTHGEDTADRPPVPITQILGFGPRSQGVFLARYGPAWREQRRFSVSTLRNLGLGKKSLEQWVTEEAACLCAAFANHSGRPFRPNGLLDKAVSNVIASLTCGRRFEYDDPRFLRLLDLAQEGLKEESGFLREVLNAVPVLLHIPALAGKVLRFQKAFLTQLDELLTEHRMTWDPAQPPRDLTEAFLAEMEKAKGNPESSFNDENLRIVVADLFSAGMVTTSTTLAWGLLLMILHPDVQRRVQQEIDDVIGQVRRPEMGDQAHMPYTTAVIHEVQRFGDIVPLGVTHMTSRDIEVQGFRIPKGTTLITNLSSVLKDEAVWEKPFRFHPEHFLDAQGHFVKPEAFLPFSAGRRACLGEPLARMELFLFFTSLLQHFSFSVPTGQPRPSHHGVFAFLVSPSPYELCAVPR
Cytochrome P450 2C9, sequence (P11712 whole entry): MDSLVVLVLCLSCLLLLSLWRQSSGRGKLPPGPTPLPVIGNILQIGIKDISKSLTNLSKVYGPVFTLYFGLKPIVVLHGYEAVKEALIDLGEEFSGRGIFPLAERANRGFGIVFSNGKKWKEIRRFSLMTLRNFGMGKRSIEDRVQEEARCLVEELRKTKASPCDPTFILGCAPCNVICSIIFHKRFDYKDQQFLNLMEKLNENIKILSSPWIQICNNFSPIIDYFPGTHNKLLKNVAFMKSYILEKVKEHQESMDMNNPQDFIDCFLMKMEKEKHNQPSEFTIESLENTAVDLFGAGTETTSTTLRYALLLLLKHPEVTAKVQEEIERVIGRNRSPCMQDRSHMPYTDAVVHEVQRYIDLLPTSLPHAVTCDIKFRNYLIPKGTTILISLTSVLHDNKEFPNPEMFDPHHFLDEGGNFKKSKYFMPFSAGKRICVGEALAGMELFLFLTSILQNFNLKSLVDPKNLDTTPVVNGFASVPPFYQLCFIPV
Histamine H4 receptor (Rattus norvegicus), sequence (Q91ZY1 whole entry): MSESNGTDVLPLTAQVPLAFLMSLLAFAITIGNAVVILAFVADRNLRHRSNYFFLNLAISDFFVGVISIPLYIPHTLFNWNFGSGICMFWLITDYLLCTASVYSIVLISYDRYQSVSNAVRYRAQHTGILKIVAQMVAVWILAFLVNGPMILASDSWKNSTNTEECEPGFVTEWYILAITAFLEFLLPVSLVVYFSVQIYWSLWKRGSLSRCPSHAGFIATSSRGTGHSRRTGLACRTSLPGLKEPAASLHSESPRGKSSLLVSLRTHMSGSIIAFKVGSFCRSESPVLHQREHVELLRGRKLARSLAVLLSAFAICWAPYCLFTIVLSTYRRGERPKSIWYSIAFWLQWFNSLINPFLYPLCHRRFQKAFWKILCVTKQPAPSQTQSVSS
T3 sequence (Q91ZY1 whole entry): as above
Cytochrome P450 3A4, sequence (P08684 whole entry): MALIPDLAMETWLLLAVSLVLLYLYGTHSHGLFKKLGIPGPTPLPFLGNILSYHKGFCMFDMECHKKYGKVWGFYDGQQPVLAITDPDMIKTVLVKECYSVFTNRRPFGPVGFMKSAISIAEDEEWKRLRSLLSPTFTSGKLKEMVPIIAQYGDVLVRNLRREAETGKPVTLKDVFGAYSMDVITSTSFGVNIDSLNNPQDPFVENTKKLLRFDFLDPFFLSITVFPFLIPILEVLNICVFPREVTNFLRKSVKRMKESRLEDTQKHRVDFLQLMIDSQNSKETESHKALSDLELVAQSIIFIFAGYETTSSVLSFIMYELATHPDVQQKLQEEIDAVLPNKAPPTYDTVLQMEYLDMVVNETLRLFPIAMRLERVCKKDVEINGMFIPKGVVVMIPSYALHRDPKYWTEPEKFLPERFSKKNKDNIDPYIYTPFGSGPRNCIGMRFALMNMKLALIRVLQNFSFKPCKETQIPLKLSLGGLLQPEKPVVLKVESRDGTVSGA
Delta-type opioid receptor (Homo sapiens), sequence (P41143 whole entry): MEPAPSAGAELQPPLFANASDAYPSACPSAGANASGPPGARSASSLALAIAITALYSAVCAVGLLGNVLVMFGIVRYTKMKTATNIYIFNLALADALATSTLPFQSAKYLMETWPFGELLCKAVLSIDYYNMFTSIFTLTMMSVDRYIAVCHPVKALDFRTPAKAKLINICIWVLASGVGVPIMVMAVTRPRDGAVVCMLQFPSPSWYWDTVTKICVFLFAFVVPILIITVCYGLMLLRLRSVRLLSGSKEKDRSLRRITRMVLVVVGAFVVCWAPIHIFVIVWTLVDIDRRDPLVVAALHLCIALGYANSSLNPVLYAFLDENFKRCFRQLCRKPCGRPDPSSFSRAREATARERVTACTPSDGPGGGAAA
Mu-type opioid receptor (Homo sapiens), sequence (P35372 whole entry): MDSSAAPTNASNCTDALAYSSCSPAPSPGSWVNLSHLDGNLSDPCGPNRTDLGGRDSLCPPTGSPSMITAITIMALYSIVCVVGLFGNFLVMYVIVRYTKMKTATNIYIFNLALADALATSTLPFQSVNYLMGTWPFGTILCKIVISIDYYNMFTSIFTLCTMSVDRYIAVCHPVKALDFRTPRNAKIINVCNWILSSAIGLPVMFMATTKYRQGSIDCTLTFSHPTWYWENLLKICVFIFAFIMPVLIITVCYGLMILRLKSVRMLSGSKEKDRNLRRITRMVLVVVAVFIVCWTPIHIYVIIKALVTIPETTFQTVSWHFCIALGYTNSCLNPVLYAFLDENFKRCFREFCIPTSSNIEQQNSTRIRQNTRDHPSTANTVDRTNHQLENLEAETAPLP
Cannabinoid receptor 1 (Homo sapiens), sequence (P21554 whole entry): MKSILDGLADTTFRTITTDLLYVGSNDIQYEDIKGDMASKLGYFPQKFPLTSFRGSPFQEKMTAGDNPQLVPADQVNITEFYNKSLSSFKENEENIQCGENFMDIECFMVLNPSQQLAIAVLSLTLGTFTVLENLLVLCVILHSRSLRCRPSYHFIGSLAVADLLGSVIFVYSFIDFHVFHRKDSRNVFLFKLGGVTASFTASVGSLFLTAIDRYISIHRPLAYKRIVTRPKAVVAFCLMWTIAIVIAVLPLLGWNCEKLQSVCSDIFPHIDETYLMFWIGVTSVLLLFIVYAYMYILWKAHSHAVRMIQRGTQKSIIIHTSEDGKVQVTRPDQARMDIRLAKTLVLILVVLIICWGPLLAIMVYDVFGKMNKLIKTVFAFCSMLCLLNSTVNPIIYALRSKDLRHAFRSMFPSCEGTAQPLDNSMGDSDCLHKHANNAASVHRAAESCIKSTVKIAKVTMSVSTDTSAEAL
Kappa-type opioid receptor (Homo sapiens), sequence (P41145 whole entry): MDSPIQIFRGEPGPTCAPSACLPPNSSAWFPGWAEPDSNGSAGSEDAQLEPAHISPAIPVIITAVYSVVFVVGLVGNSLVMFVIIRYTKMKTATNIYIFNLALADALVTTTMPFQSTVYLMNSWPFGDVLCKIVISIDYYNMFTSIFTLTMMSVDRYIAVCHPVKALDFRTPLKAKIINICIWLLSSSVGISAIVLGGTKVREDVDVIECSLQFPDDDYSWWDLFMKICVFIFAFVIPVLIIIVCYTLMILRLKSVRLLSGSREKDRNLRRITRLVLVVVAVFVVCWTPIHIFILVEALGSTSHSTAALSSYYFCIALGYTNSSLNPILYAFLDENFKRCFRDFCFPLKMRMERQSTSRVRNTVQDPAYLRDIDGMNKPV
Cannabinoid receptor 2 (Homo sapiens), sequence (P34972 whole entry): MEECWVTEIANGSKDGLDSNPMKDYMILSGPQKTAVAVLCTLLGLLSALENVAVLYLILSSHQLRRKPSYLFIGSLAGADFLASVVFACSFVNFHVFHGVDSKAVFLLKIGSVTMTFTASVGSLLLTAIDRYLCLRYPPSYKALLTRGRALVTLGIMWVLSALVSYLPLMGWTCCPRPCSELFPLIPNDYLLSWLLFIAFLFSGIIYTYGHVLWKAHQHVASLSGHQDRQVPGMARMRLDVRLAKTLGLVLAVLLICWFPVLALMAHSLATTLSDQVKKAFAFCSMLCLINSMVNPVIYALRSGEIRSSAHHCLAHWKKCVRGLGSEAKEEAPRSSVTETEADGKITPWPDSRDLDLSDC

Nc1nc2c(c(N3CCNCC3)n1)CCCCC2c1ccccc1 (centres undefined)
Ratio Ki [1]: 480 | Ki (Histamine H4 receptor [2]; read-out: Ki): 39.8 nM | Activity (Cytochrome P450 3A4): Not Active | Stability (Liver microsomes [3]): 108 pmol/min/mg | fraction unbound [4]: 0.41 | fraction unbound [5]: 0.24 | Ratio Ki (Homo sapiens): 56 | pKb (Histamine H4 receptor [6]): 7.24 | Ratio Ki [7]: 2.2 | Ratio Ki [8]: > 160 | Activity (BMMC): Active | Ratio Ki [9]: 81 | ED50 (Mus musculus [10]): 79 µmol/kg | Ratio Ki [11]: > 230 | Ratio Ki [12]: 11 | Vd [13]: 22 L/kg | Stability [14]: 10.9 pmol/min/mg | Activity (Cytochrome P450 2C9): Not Active | Stability (Liver microsomes [15]): 28.5 pmol/min/mg | EC50 (Histamine H4 receptor [16]): 45.7 nM | half-life [17]: 3.2 h | Ratio Ki [18]: 125 | bioavailability [19]: 31% | EC50 (Histamine H4 receptor [20]): 55 nM | Ki (Histamine H4 receptor [21]): 4.47 nM | clearance [22]: 80 mL/min/kg | ED50 (Mus musculus [23]): 10 µmol/kg | Activity (Cytochrome P450 2D6): Not Active

Nc1nc2c(c(N3CCNCC3)n1)Cc1ccccc1-2
Ki (Histamine H4 receptor [2]; read-out: pKi (converted)): 12.9 nM | Activity (Cytochrome P450 3A4): Not Active | Stability (Liver microsomes [3]): 65.8 pmol/min/mg | fraction unbound [4]: 0.72 | fraction unbound [5]: 0.31 | pKb (Histamine H4 receptor [6]): 8.75 | Efficacy [24]: 96% | Stability [14]: 43.6 pmol/min/mg | Activity (Cytochrome P450 2C9): Not Active | Stability (Liver microsomes [15]): 18.7 pmol/min/mg | EC50 (Histamine H4 receptor [20]): 20 nM | Ki (Histamine H4 receptor [21]): 4.79 nM | Activity (Cytochrome P450 2D6): Not Active

Nc1nc2c(c(N3CCNCC3)n1)CCc1ccccc1-2
Ki (Histamine H4 receptor [2]; read-out: pKi (converted)): 52.5 nM | Activity (Cytochrome P450 3A4): Not Active | Stability (Liver microsomes [3]): 104 pmol/min/mg | fraction unbound [4]: 0.59 | fraction unbound [5]: 0.73 | pKb (Histamine H4 receptor [6]): 7.58 | Efficacy [24]: 52% | Stability [14]: 18.4 pmol/min/mg | Activity (Cytochrome P450 2C9): Not Active | Stability (Liver microsomes [15]): 45.9 pmol/min/mg | EC50 (Histamine H4 receptor [20]): 24 nM | Ki (Histamine H4 receptor [21]): 9.12 nM | Activity (Cytochrome P450 2D6): Not Active

CN[C@@H]1CCN(c2nc(N)nc3c2CCCCCc2ccccc2-3)C1
pKb (Histamine H4 receptor [6]): 7.6 | Activity (BMMC): inactive | pKb [25]: 7.25

CN[C@@H]1CCN(c2nc(N)nc3c2Cc2ccccc2-3)C1
pKb (Histamine H4 receptor [6]): 8.5 | EC50 (Histamine H4 receptor [20]): 19.1 nM

Nc1nc2c(c(N3CCNCC3)n1)CCCc1ccc(F)cc1-2
Activity [26]: inactive | Ratio Ki [1]: > 2000 | Ki (Histamine H4 receptor [2]; read-out: Ki): 5.1 nM | Activity (Cytochrome P450 3A4): Not Active | Stability (Liver microsomes [3]): 200 pmol/min/mg | Activity [27]: inactive | fraction unbound [4]: 0.39 | fraction unbound [5]: 0.34 | Ratio Ki (Homo sapiens): 470 | pKb (Histamine H4 receptor [6]): 8.01 | Ratio Ki [7]: 765 | Ratio Ki [8]: > 1290 | Activity (BMMC): Active | Ratio Ki [9]: 850 | ED50 (Mus musculus [10]): 134 µmol/kg | Ratio Ki [11]: > 1820 | Ratio Ki [12]: 3070 | Vd [13]: 18.2 L/kg | Stability [14]: 32.4 pmol/min/mg | Activity (Cytochrome P450 2C9): Not Active | Stability (Liver microsomes [15]): 27.3 pmol/min/mg | EC50 (Histamine H4 receptor [16]): 4.79 nM | Activity [28]: inactive | half-life [17]: 3.5 h | Ratio Ki [18]: 1220 | Activity [29]: inactive | Activity [30]: inactive | Activity [31]: inactive | bioavailability [19]: 18% | EC50 (Histamine H4 receptor [20]): 6.03 nM | Ki (Histamine H4 receptor [21]): 1.45 nM | clearance [22]: 60 mL/min/kg | Activity [32]: inactive | ED50 (Mus musculus [23]): 10 µmol/kg | Activity (Cytochrome P450 2D6): Not Active

CN1CCN(c2nc(N)nc3c2CCc2ccccc2-3)CC1
Ki (Histamine H4 receptor [2]; read-out: pKi (converted)): 15.5 nM | Activity (Cytochrome P450 3A4): Not Active | Stability (Liver microsomes [3]): 192 pmol/min/mg | fraction unbound [4]: 0.22 | fraction unbound [5]: 0.3 | pKb (Histamine H4 receptor [6]): 8.08 | Efficacy [24]: 76% | Stability [14]: 195 pmol/min/mg | Activity (Cytochrome P450 2C9): Not Active | Stability (Liver microsomes [15]): 102 pmol/min/mg | EC50 (Histamine H4 receptor [20]): 15.5 nM | Ki (Histamine H4 receptor [21]): 5.37 nM | Activity (Cytochrome P450 2D6): Not Active

CN1CCN(c2cc(-c3ccccc3)nc(N)n2)CC1
Ki (Histamine H4 receptor [2]; read-out: pKi (converted)): 5.01 nM | Activity (Cytochrome P450 3A4): Not Active | Stability (Liver microsomes [3]): 168 pmol/min/mg | fraction unbound [4]: 0.51 | fraction unbound [5]: 0.35 | pKb (Histamine H4 receptor [6]): 8.39 | Efficacy [24]: 79% | Stability [14]: 119 pmol/min/mg | Activity (Cytochrome P450 2C9): Not Active | Stability (Liver microsomes [15]): 22 pmol/min/mg | Ki (Histamine H4 receptor [21]): 14.1 nM | Activity (Cytochrome P450 2D6): Not Active

CN[C@@H]1CCN(c2nc(N)nc3c2CCCCc2ccccc2-3)C1
pKb (Histamine H4 receptor [6]): 8.15 | Activity (BMMC): inactive | pKb [25]: 7.5

CN[C@@H]1CCN(c2nc(N)nc3c2CCc2ccccc2-3)C1
pKb (Histamine H4 receptor [6]): 8.29 | pKb [25]: 7.66
